Measurements taken from patent publication US8742167B2, “Therapeutic formulations based on asiatic acid and selected salts thereof” (Shanghai Institute of Pharmaceutical Industry, priority 2008, dated 2014).
Where “and” joins values, the source holds several entries; their conditions need not be identical. Equal entries are not always repeated. Entries after “also recorded” stand apart in the source; their conditions may differ. Structures can show the parent of a compound that is named as a salt. Where two headings read alike, the source gives them in different places. Marks after values point to notes of the source that are not given here.

How the values were obtained:
[1] = Solubility in water and methanol (saturated solutions, HPLC); assay type: physicochemical; settings: for Solubility: single preparations (inj 1A-1C)
Procedure: Approximately 5 mg of asiatic acid were transferred into a 25 mL volumetric flask, and 1 mL, of methanol was added and mixed well, until the acid had dissolved in the methanol. The volumetric flask then was brought to volume with mobile phase and mixed well. [table] Saturated solutions obtained from starting material and salt in methanol and water were filtered and diluted accordingly with mobile phase. No dilution was performed for asiatic acid in water. Samples were prepared in triplicate except for the sodium salt prepared in methanol, for which two preparations were done.

[2] = system: bleomycin-induced pulmonary fibrosis in rats; assay: Mortality during experiment days 7-28, bleomycin-induced pulmonary fibrosis in rats; assay type: in vivo, SD rats
Procedure: (§1) Male SD rats, body weight 250-300 g. The animals were anesthetized with 3% seconal, laid flat and fixed onto the operating table. The necks of the animals were disinfected with alcohol and cut to expose tracheae. A needle was inserted via the space between tracheal rings centripetally, and 5 mg/kg of bleomycin was injected. The rats were kept upright and rotated, in order to keep the solution uniformly distributed in the lungs. Then the incisions were sutured.
(§2) After the rats regained consciousness, they were randomly grouped. The animals were divided into (i) a group receiving administration on the next day after establishing the model and (ii) a group receiving administration at 7 days after the model was established. Included were 27, 9, and 3 mg/kg p.o.×28 d asiatic acid groups, 0.6 mg/kg p.o.×28 d dexamethasone group, 36 mg/kg p.o.×28 d asiaticoside group, model group, and blank group. Normal saline was administered for the model and blank groups. On the 28th day after asiatic acid and asiaticoside administration, survival and weight ratio of lungs were measured; pathological examination and serological examination were performed.

[3] = system: bleomycin-induced pulmonary fibrosis in rats; assay: Lung weight index of bleomycin-induced pulmonary fibrosis in rats; assay type: in vivo, SD rats; settings: for lung weight ratio (%): (lung weight/body weight)x100%
Procedure: as §1, §2
Effect of on lung weight index of bleomycin-induced pulmonary fibrosis in rats treated with asiatic acid Body weight and lung weight were measured after the rats were sacrificed. Lung weight ratio=(lung weight/body weight)×100%.

[4] = system: TFG-β; assay: Serological test (ELISA kit) of TFG-β in rats of bleomycin-induced pulmonary fibrosis; assay type: in vivo, SD rats; settings: serum; for TFG-β (2nd day) X ± SD: dosing from 2nd day; for TFG-β (7th day) X ± SD: dosing from 7th day
Procedure: TFG-β Kit, Human 96T ELISA kit imported by Shanghai Jingmei
as §1, §2
(§3) Serum samples were prepared according to a standard protocol (centrifuged 3000 rpm, 10 minutes after collection) and were stored at −20° C. Testing was conducted in accordance with kit instructions.

[5] = system: TNF-α; assay: Serological test (ELISA kit) of TNF-α in rats of bleomycin-induced pulmonary fibrosis; assay type: in vivo, SD rats; settings: serum; for TNF-α (2nd day) X ± SD: dosing from 2nd day; for TNF-α (7th day) X ± SD: dosing from 7th day
Procedure: TNF-α Kit, Human 96T ELISA kit imported by Shanghai Jingmei
as §1, §2, §3

[6] = system: Hydroxyproline; assay: Measured value of hydroxyproline in experiment of asiatic acid antagonizing fibrosis; assay type: in vivo, SD rats; set-up: Measured Value of Hydroxyproline (on 2nd day), single animals / Measured Value of Hydroxyproline (on 2nd day), X / Measured Value of Hydroxyproline (on 7th day), single animals / Measured Value of Hydroxyproline (on 7th day), X: unit not given here; settings: for Measured Value of Hydroxyproline (on 2nd day), X / Measured Value of Hydroxyproline (on 7th day), X: group mean
Procedure: as §1, §2

[7] = system: Type III collagen; assay: Type III collagen content, bleomycin rat model; assay type: in vivo, SD rats
Procedure: as §1, §2

[8] = system: pulmonary fibrosis induced by bleomycin in rats; assay: Pathological analysis of lung (HE staining; collagen fiber and elastic fiber dual staining); assay type: in vivo, SD rats; settings: asiaticoside 36 mg/kg; administration on the next day after establishing model
Procedure: as §1, §2
The lung tissues were fixed in 10% formalin for 1 week. […] The thickness of sections was […]. Routine hematoxylin-eosin (HE) staining was performed. Dual special staining of collagen fibers and elastic fibers were conducted in order to detect the degree of fibrosis. The staining of the two groups of sections was observed and the results were as follows.

[9] = asiaticoside 36 mg/kg, individual rats 1-10
[10] = dexamethasone (0.6 mg/kg), individual rats 1-6

C[C@H]1[C@H](C)CC[C@]2(C(=O)O)CC[C@]3(C)C(=CC[C@@H]4[C@@]5(C)C[C@@H](O)[C@H](O)[C@@](C)(CO)[C@@H]5CC[C@]43C)[C@H]12 [Asiatic acid-Na salt NaOH, asiatic acid sodium salt]
Solubility ([1]; MeOH, sodium salt): 24.08 mg/mL | Solubility ([1]; methanol, organic solvent or mixture, thermodynamic from solid, MeOH, read-out: Solubility): 25.4 mg/mL | times more soluble than asiatic acid ([1]; water): ~228 times | Solubility ([1]; water, thermodynamic from solid, water, read-out: Solubility): 6.86 mg/mL | Solubility ([1]; water, sodium salt): 6.36 mg/mL and 7.32 mg/mL

C[C@H]1[C@H](C)CC[C@]2(C(=O)O[C@@H]3O[C@H](CO[C@@H]4O[C@H](CO)[C@@H](O[C@@H]5O[C@H](C)[C@H](O)[C@@H](O)[C@H]5O)[C@H](O)[C@H]4O)[C@@H](O)[C@H](O)[C@H]3O)CC[C@]3(C)C(=CC[C@@H]4[C@@]5(C)C[C@@H](O)[C@H](O)[C@@](C)(CO)[C@@H]5CC[C@]43C)[C@H]12 [Asiaticoside, asiaticoside]
remaining samples at the end of study ([2]; asiaticoside 36 mg/kg p.o. x 28 d, dosing started on 2nd day, 14 on day 7): 12 | number of deaths ([2]; asiaticoside 36 mg/kg p.o. x 28 d, dosing started on 2nd day, days 7-28): 2 | number of deaths ([2]; asiaticoside 36 mg/kg p.o. x 28 d, dosing started on 7th day): 2 | remaining samples at the end of study ([2]; asiaticoside 36 mg/kg p.o. x 28 d, dosing started on 7th day, 13 in the group): 11 | survival / bleomycin-induced death ([2]; rats treated with bleomycin, treatment initiated one day or seven days after bleomycin): largely prevented bleomycin-induced death; also recorded: significantly enhance survival | lung weight ratio (%) ([3]; asiaticoside 36 mg/kg, started 7 day after model established): 0.80** % | lung weight ratio (%) ([3]; asiaticoside 36 mg/kg, started from the second day): 0.84** % | lung weight (g) X ± SD ([3]; asiaticoside 36 mg/kg, 28-day administration started 7 day after model established): 2.59 ± 0.33 g | lung weight (g) X ± SD ([3]; asiaticoside 36 mg/kg, 28-day administration started from the second day): 2.62 ± 0.38 g | lung weight to body weight ratio ([3]; starting on 2nd or 7th day, compared with the model group): significantly decrease bleomycin-induced lung fibrosis | TFG-β (2nd day) X ± SD ([4]; asiaticoside 36 mg/kg): 0.670 ± 0.155 OD value | TFG-β (7th day) X ± SD ([4]; asiaticoside 36 mg/kg): 1.181 ± 0.364 OD value | TNF-α (2nd day) X ± SD ([5]; asiaticoside 36 mg/kg): 0.064 ± 0.013 OD value | TNF-α (7th day) X ± SD ([5]; asiaticoside 36 mg/kg): 0.091 ± 0.027 OD value | Measured Value of Hydroxyproline (on 2nd day), X ([6]; asiaticoside 36 mg/kg): 24.11 | Measured Value of Hydroxyproline (on 7th day), X ([6]; asiaticoside 36 mg/kg): 26.57 | Measured Value of Hydroxyproline (on 2nd day), single animals [6, 9]: 28.56 and 28.69 and 19.63 and 25.34 and 28.11 and 20.54 and 25.36 and 19.47 and 25.25 and 20.11 | Measured Value of Hydroxyproline (on 7th day), single animals [6, 9]: 28.19 and 24.36 and 28.17 and 24.69 and 29.1 and 25.11 and 25.91 and 24.97 and 29.69 and 25.55 | serum levels of hydroxyproline ([6]; overall statement): significantly decrease bleomycin-induced fibrosis | serum levels of type III collagen ([7]; overall statement): significantly decrease bleomycin-induced fibrosis | lung pathology, HE staining [8]: less serious than those of the model group

C[C@@H]1C[C@H]2[C@@H]3CCC4=CC(=O)C=C[C@]4(C)[C@@]3(F)[C@@H](O)C[C@]2(C)[C@@]1(O)C(=O)CO [Dexamethasone, reference compound]
remaining samples at the end of study ([2]; dexamethasone 0.6 mg/kg p.o. x 28 d, dosing started on 2nd day, 14 on day 7): 6 | number of deaths ([2]; dexamethasone 0.6 mg/kg p.o. x 28 d, dosing started on 2nd day, days 7-28): 8 | number of deaths ([2]; dexamethasone 0.6 mg/kg p.o. x 28 d, dosing started on 7th day): 7 | remaining samples at the end of study ([2]; dexamethasone 0.6 mg/kg p.o. x 28 d, dosing started on 7th day, 13 in the group): 6 | lung weight ratio (%) ([3]; dexamethasone 0.6 mg/kg, started 7 day after model established): 1.14% | lung weight ratio (%) ([3]; dexamethasone 0.6 mg/kg, started from the second day): 1.31% | lung weight (g) X ± SD ([3]; dexamethasone 0.6 mg/kg, 28-day administration started 7 day after model established): 2.05 ± 0.40 g | lung weight (g) X ± SD ([3]; dexamethasone 0.6 mg/kg, 28-day administration started from the second day): 2.06 ± 0.52 g | TFG-β (2nd day) X ± SD ([4]; dexamethasone 0.6 mg/kg): 0.751 ± 0.214 OD value | TFG-β (7th day) X ± SD ([4]; dexamethasone 0.6 mg/kg): 0.717 ± 0.197 OD value | TNF-α (2nd day) X ± SD ([5]; dexamethasone 0.6 mg/kg): 0.073 ± 0.006 OD value | TNF-α (7th day) X ± SD ([5]; dexamethasone 0.6 mg/kg): 0.060 ± 0.006 OD value | Measured Value of Hydroxyproline (on 2nd day), X ([6]; dexamethasone (0.6 mg/kg)): 23.45 | Measured Value of Hydroxyproline (on 7th day), X ([6]; dexamethasone (0.6 mg/kg)): 27.35 | Measured Value of Hydroxyproline (on 2nd day), single animals [6, 10]: 19.86 and 23.31 and 21.69 and 24.63 and 25.36 and 25.87 | Measured Value of Hydroxyproline (on 7th day), single animals [6, 10]: 25.17 and 27.44 and 25.99 and 29.66 and 28.07 and 27.75 | Type III collagen content X ± SD ([7]; Dex (0.6 mg/kg), treatment starting on Day 7): 0.518 ± 0.527
